pKi: −log10 of the molar value. Values after ≈ are worked out from the molar mass of the structure shown. Read-outs that look alike come from different tables or passages of the source.
How the values were obtained:
[1] = biological target: Human recombinant cyclophilin A (Cyp A) (Homo sapiens, UniProt P62937); experiment: Protease-free PPIase assay;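 further: cis to trans isomerization of SUC-AAPF-pNA by 2 nM enzyme, read as absorbance at 330 nm over 300 s at 10 °C, catalytic rate corrected for uncatalyzed background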
[2] = Water Solubility Assay (measured in pH 7.8 buffer); format: physicochemical; conditions: kinetic from dmso stock;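 further: precipitation onset detected as rise in absorbance at 650 nm across increasing concentrations, after shaking for 18 h, blank wells receiving DMSO only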
Protocol: The aqueous solubility of a compound of Formula I in buffer (pH 7.8) was measured by recording the onset of precipitation of the compound as a function of increasing concentration. The onset of precipitation, if it occurred, was detected by an increase in absorbance at 650 nm.
Assay Buffer: 35 mM HEPES pH 7.8
Stock solutions of Control and Test Compounds: 10 mM in 100% DMSO
10 mM stock solutions of control and test compounds were prepared in 100% DMSO.
Assay buffer (247.5 μl) was placed into flat bottomed transparent 96-well plate. For blank samples DMSO (2.5 μl) was added. For test and control samples 2.5 μl of the appropriate DMSO dilution stocks were added to the appropriate well. All test and control compounds were performed in triplicate.
The plates were sealed with adhesive plate seal and shaken at 250 rpm at 25° C. for 18 h on a plate shaker.
After incubation the plate seals were taken off and any bubbles observed in wells removed. The plates were read on a SpectraMaxM5 with a 5 s pre-shake at 650 nm.
Data files were transferred to the appropriate worksheet and the solubility range of the compounds was calculated from the data.

[3] = 35 mM HEPES buffer pH 7.8, 25 °C, aqueous buffer, pH 7.8 buffer, read-out: Water Solubility Assay

Sequence of Human recombinant cyclophilin A (Cyp A) (P62937 whole entry): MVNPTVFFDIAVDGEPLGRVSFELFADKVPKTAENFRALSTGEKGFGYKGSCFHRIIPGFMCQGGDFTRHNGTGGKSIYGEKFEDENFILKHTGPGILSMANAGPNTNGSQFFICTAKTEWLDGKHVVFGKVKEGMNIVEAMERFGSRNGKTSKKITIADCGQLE

| SMILES | pKi [1] | solubility at 18 h ([2]; 25 °C, pH 7.8, aqueous buffer) [µM] | solubility at 18 h [2, 3] [µM] | solubility at 18 h ([2]; 35 mM HEPES buffer pH 7.8, aqueous buffer, 35 mM HEPES pH 7.8, 1% DMSO, 25 °C, 18 h, read-out: Water Solubility Assay, concentration at which the compound remains in solution) [µM] |
| --- | --- | --- | --- | --- |
| CC[C@H]1NC(=O)[C@@H]([C@H](O)[C@H](C)CCN2CCOCC2)N(C)C(=O)[C@@H](C(C)C)N(C)C(=O)[C@@H](CC(C)C)N(C)C(=O)[C@@H](CC(C)C)N(C)C(=O)[C@H](C)NC(=O)[C@@H](C)NC(=O)[C@@H](CC(C)C)N(C)C(=O)[C@@H](C(C)C)NC(=O)[C@H](CC(C)C)N(C)C(=O)[C@@H](CO)N(C)C1=O [Compound V, [(3R,4R,5S)-4-Hydroxy-3-methyl-5-(methylamino)-1-N-morpholino-hexanoic acid]^1[(R)-hydroxymethyl-Sar]^3 cyclosporin A] | 8.35 | > 100 | – | – |
| CC[C@H]1NC(=O)[C@@H]([C@H](O)[C@H](C)CCN2CCOC[C@@H]2C)N(C)C(=O)[C@@H](C(C)C)N(C)C(=O)[C@@H](CC(C)C)N(C)C(=O)[C@@H](CC(C)C)N(C)C(=O)[C@H](C)NC(=O)[C@@H](C)NC(=O)C(CC(C)C)N(C)C(=O)[C@@H](C(C)C)NC(=O)[C@H](CC(C)C)N(C)C(=O)[C@@H](C)N(C)C1=O (stereo partly drawn) [Compound DW, [(3R,4R,5S)-4-Hydroxy-3-methyl-5-(methylamino)-1-((S)-3-methyl-morpholin-4-yl)-hexanoic acid]^1[(R)-methyl-Sar]^3 cyclosporin A] | 8.19 | > 100 | – | – |
| CC[C@H]1NC(=O)[C@@H]([C@H](O)[C@H](C)CCN(C)Cc2cccnc2)N(C)C(=O)[C@@H](C(C)C)N(C)C(=O)[C@@H](CC(C)C)N(C)C(=O)[C@@H](CC(C)C)N(C)C(=O)[C@H](C)NC(=O)[C@@H](C)NC(=O)[C@@H](CC(C)C)N(C)C(=O)[C@@H](C(C)C)NC(=O)[C@H](CC(C)C)N(C)C(=O)[C@@H](C)N(C)C1=O [Compound DF, [(3R,4R,5S)-4-Hydroxy-3-methyl-5-(methylamino)-1-({pyridin-3-ylmethyl}-methylamino)-hexanoic acid]^1[(R)-methyl-Sar]^3 cyclosporin A] | 7.85 | – | > 100 | – |
| CC[C@H]1NC(=O)[C@@H]([C@H](O)[C@H](C)CCN2CCC3(CC2)OCCO3)N(C)C(=O)[C@@H](C(C)C)N(C)C(=O)[C@@H](CC(C)C)N(C)C(=O)[C@@H](CC(C)C)N(C)C(=O)[C@H](C)NC(=O)[C@@H](C)NC(=O)C(CC(C)C)N(C)C(=O)[C@@H](C(C)C)NC(=O)[C@H](CC(C)C)N(C)C(=O)[C@@H](C)N(C)C1=O (stereo partly drawn) [Compound DY, [(3R,4R,5S)-1-(1,4-Dioxa-8-aza-spiro[4.5]dec-8-yl)-4-Hydroxy-3-methyl-5-(methylamino)-hexanoic acid]^1[(R)-methyl-Sar]^3 cyclosporin A] | 7.89 | – | > 100 | – |
| CC[C@H]1NC(=O)[C@@H]([C@H](O)[C@H](C)CCN2CCOCC2)N(C)C(=O)[C@@H](C(C)C)N(C)C(=O)[C@@H](CC(C)C)N(C)C(=O)[C@@H](CC(C)C)N(C)C(=O)[C@H](C)NC(=O)[C@@H](C)NC(=O)[C@@H](CC(C)C)N(C)C(=O)[C@@H](C(C)C)NC(=O)[C@H](CC(C)C)N(C)C(=O)[C@@H](COC)N(C)C1=O [Compound D, [(3R,4R,5S)-4-Hydroxy-3-methyl-5-(methylamino)-1-N-morpholino-hexanoic acid]^1[(R)-methoxymethylene-Sar]^3 cyclosporin A] | 8.00 | 75 to 100 (≈ 97.9 to 131 µg/mL) | – | – |
| CC[C@H]1NC(=O)[C@@H]([C@H](O)[C@H](C)CCN2CCOC[C@H]2C)N(C)C(=O)[C@@H](C(C)C)N(C)C(=O)[C@@H](CC(C)C)N(C)C(=O)[C@@H](CC(C)C)N(C)C(=O)[C@H](C)NC(=O)[C@@H](C)NC(=O)C(CC(C)C)N(C)C(=O)[C@@H](C(C)C)NC(=O)[C@H](CC(C)C)N(C)C(=O)[C@@H](C)N(C)C1=O (stereo partly drawn) [Compound DT, [(3R,4R,5S)-4-Hydroxy-3-methyl-5-methylamino-((R)-3-methyl-morpholin-4-yl)-hexanoic acid]^1[(R)-methyl-Sar]^3 cyclosporin A] | 8.33 | > 100 | – | – |
| CC[C@H]1NC(=O)[C@@H]([C@H](O)[C@H](C)CCN(C)Cc2cc(C(F)(F)F)nn2C)N(C)C(=O)[C@@H](C(C)C)N(C)C(=O)[C@@H](CC(C)C)N(C)C(=O)[C@@H](CC(C)C)N(C)C(=O)[C@H](C)NC(=O)[C@@H](C)NC(=O)[C@@H](CC(C)C)N(C)C(=O)[C@@H](C(C)C)NC(=O)[C@H](CC(C)C)N(C)C(=O)[C@@H](C)N(C)C1=O [Compound DO, [(3R,4R,5S)-4-Hydroxy-3-methyl-5-(methylamino)-1-({1-methyl-3-trifluoromethyl-2H-pyrazol-5-ylmethyl}-methylamino)-hexanoic acid]^1[(R)-methyl-Sar]^3 cyclosporin A] | 8.55 | – | 10 to 25 (≈ 13.8 to 34.5 µg/mL) | – |
| CC[C@H]1NC(=O)[C@@H]([C@H](O)[C@H](C)CCN(C)Cc2ncccn2)N(C)C(=O)[C@@H](C(C)C)N(C)C(=O)[C@@H](CC(C)C)N(C)C(=O)[C@@H](CC(C)C)N(C)C(=O)[C@H](C)NC(=O)[C@@H](C)NC(=O)[C@@H](CC(C)C)N(C)C(=O)[C@@H](C(C)C)NC(=O)[C@H](CC(C)C)N(C)C(=O)[C@@H](C)N(C)C1=O [Compound DG, [(3R,4R,5S)-4-Hydroxy-3-methyl-5-(methylamino)-1-({pyrimidin-2-ylmethyl}-methylamino)-hexanoic acid]^1[(R)-methyl-Sar]^3 cyclosporin A] | 8.07 | – | > 100 | – |
| CC[C@H]1NC(=O)[C@@H]([C@H](O)[C@H](C)CCN(C)CCS(N)(=O)=O)N(C)C(=O)[C@@H](C(C)C)N(C)C(=O)[C@@H](CC(C)C)N(C)C(=O)[C@@H](CC(C)C)N(C)C(=O)[C@H](C)NC(=O)[C@@H](C)NC(=O)[C@@H](CC(C)C)N(C)C(=O)[C@@H](C(C)C)NC(=O)[C@H](CC(C)C)N(C)C(=O)[C@@H](C)N(C)C1=O [Compound DE] | 8.24 | > 100 | – | – |
| CC[C@H]1NC(=O)[C@@H]([C@H](O)[C@H](C)CCN2CCOc3ccccc32)N(C)C(=O)[C@@H](C(C)C)N(C)C(=O)[C@@H](CC(C)C)N(C)C(=O)[C@@H](CC(C)C)N(C)C(=O)[C@H](C)NC(=O)[C@@H](C)NC(=O)C(CC(C)C)N(C)C(=O)[C@@H](C(C)C)NC(=O)[C@H](CC(C)C)N(C)C(=O)[C@@H](C)N(C)C1=O (stereo partly drawn) [Compound DX, [(3R,4R,5S)-1-(2,3-Dihydro-benzo[1,4]oxazin-4-yl)-4-Hydroxy-3-methyl-5-(methylamino)-hexanoic acid]^1[(R)-methyl-Sar]^3 cyclosporin A] | 8.28 | – | 25 to 50 (≈ 33.1 to 66.2 µg/mL) | – |
| CC[C@H]1NC(=O)[C@@H]([C@H](O)[C@H](C)CCN(C)Cc2ccccn2)N(C)C(=O)[C@@H](C(C)C)N(C)C(=O)[C@@H](CC(C)C)N(C)C(=O)[C@@H](CC(C)C)N(C)C(=O)[C@H](C)NC(=O)[C@@H](C)NC(=O)[C@@H](CC(C)C)N(C)C(=O)[C@@H](C(C)C)NC(=O)[C@H](CC(C)C)N(C)C(=O)[C@@H](C)N(C)C1=O [Compound DA, [(3R,4R,5S)-4-Hydroxy-3-methyl-5-(methylamino)-1-({pyridin-2-ylmethyl}-methylamino)-hexanoic acid]^1[(R)-methyl-Sar]^3 cyclosporin A] | 8.31 | – | 75 to 100 (≈ 98.3 to 131 µg/mL) | – |
| CC[C@H]1NC(=O)[C@@H]([C@H](O)[C@H](C)CCN(C)CC(C)C#N)N(C)C(=O)[C@@H](C(C)C)N(C)C(=O)[C@@H](CC(C)C)N(C)C(=O)[C@@H](CC(C)C)N(C)C(=O)[C@H](C)NC(=O)[C@@H](C)NC(=O)[C@@H](CC(C)C)N(C)C(=O)[C@@H](C(C)C)NC(=O)[C@H](CC(C)C)N(C)C(=O)[C@@H](C)N(C)C1=O (stereo partly drawn) [Compound DK, [(3R,4R,5S)-1-({2-Cyano-propyl}-methyl-amino)-4-hydroxy-3-methyl-5-(methylamino)-hexanoic acid]^1[(R)-methyl-Sar]^3 cyclosporin A] | 7.89 | > 100 | – | – |
| CC[C@H]1NC(=O)[C@@H]([C@H](O)[C@H](C)CCCCCN2CCOCC2)N(C)C(=O)[C@@H](C(C)C)N(C)C(=O)[C@@H](CC(C)C)N(C)C(=O)[C@@H](CC(C)C)N(C)C(=O)[C@H](C)NC(=O)[C@@H](C)NC(=O)[C@@H](CC(C)C)N(C)C(=O)[C@@H](C(C)C)NC(=O)[C@H](CC(C)C)N(C)C(=O)CN(C)C1=O [Compound C, [(6R,7R,8S)-7-Hydroxy-6-methyl-8-(methylamino)-1-N-morpholinyl-nonanoic acid]^1 cyclosporin A] | 7.85 | – | – | > 100 |
| CC[C@H]1NC(=O)[C@@H]([C@H](O)[C@H](C)CCN(C)Cc2cnccn2)N(C)C(=O)[C@@H](C(C)C)N(C)C(=O)[C@@H](CC(C)C)N(C)C(=O)[C@@H](CC(C)C)N(C)C(=O)[C@H](C)NC(=O)[C@@H](C)NC(=O)[C@@H](CC(C)C)N(C)C(=O)[C@@H](C(C)C)NC(=O)[C@H](CC(C)C)N(C)C(=O)[C@@H](C)N(C)C1=O [Compound DH, [(3R,4R,5S)-4-Hydroxy-3-methyl-5-(methylamino)-1-({pyrazin-2-ylmethyl}-methylamino)-hexanoic acid]^1[(R)-methyl-Sar]^3 cyclosporin A] | 8.04 | – | > 100 | – |
| CC[C@H]1NC(=O)[C@@H]([C@H](O)[C@H](C)CCCCCN(CC)CC)N(C)C(=O)[C@@H](C(C)C)N(C)C(=O)[C@@H](CC(C)C)N(C)C(=O)[C@@H](CC(C)C)N(C)C(=O)[C@H](C)NC(=O)[C@@H](C)NC(=O)[C@@H](CC(C)C)N(C)C(=O)[C@@H](C(C)C)NC(=O)[C@H](CC(C)C)N(C)C(=O)[C@@H](C)N(C)C1=O [Compound AH, [(6R,7R,8S)-7-Hydroxy-6-methyl-8-(methylamino)-1-N-diethylamino-nonanoic acid]^1[(R)-methyl-Sar]^3 cyclosporin A] | 8.33 | > 100 | – | – |
| CC[C@H]1NC(=O)[C@@H]([C@H](O)[C@H](C)CCN2CCOCC2)N(C)C(=O)[C@@H](C(C)C)N(C)C(=O)[C@@H](CC(C)C)N(C)C(=O)[C@@H](CC(C)C)N(C)C(=O)[C@H](C)NC(=O)[C@@H](C)NC(=O)[C@@H](CC(C)C)N(C)C(=O)[C@@H](C(C)C)NC(=O)[C@H](CC(C)C)N(C)C(=O)[C@@H](OC)N(C)C1=O [Compound B, [(3R,4R,5S)-4-Hydroxy-3-methyl-5-(methylamino)-1-N-morpholino-hexanoic acid]^1[(S)-methoxy-Sar]^3 cyclosporin A] | 8.10 | > 100 | – | – |

From US20160039880A1 (priority 2012, published 2016)
